Test system: mutant ERα
Details: 24 hr; estrogen-depleted medium containing 100 ng/ml Dox; absence of E2

`CC/C(=C(\c1ccccc1)c1ccc(OCCN(C)C)cc1)c1ccccc1` [tamoxifen] was tested. Which “mutant ERα degradation” value did it give?
Its value is “not”.

Reference: patent publication US9855270B2, “Methods and compositions for modulating estrogen receptor mutants” (priority 2014, dated 2018)
